Data published in US20240294498A1, “FACTOR XIIA INHIBITORS” (Lunac Therapeutics Ltd, priority 2021, published 2024).

Legend:
Format in all cases: biochemical
thrombin = target: T1, thrombin (Homo sapiens, UniProt P00734); experiment: Determination of selectivity: thrombin inhibition (chromogenic substrate GPR); settings: fold selectivity for FXIIa over thrombin (human); category
T1 construct: FXa (5 nM) and thrombin (5 nM)
Description: (§1) The activities of the compounds of the invention have been determined in vitro using the following assays protocols for the screening of activity of FXIIa and other proteases. Each of these assays were performed in a purified system employing the use of chromogenic assays in microplate plate wells. Chromogenic peptide substrates mimicking natural protein substrates are attached via an amide bond to a chromogenic group. Paranitroaniline (pNA) is released from the peptide following catalyses by the proteolytic enzyme; the absorbance increases and can be monitored at 405 nm.
(§2) All compounds were dissolved in 100% (v/v) DMSO to a stock concentration of 10 mM, the highest concentration of compound used in each assay is 500 μM. The final concentrations of DMSO were 5% (v/v) in 50 mM Tris 137 mM NaCl pH 7.4. Where no test compound was added a final concentration of 5% DMSO was employed.
(§3) To determine selectivity of test compounds, these test compounds were assayed for inhibitory activity against other serine proteases including FXa and thrombin. Essentially compounds at increasing concentrations were incubated with each enzyme: FXa (5 nM) and thrombin (5 nM), for 10 mins at 37° C. followed by the appropriate chromogenic substrate, S2765 (Chromogenix) and GPR (Bachem) respectively in 50 mM Tris, 137 mM NaCl, pH 7.4. Substrates were used at a concentration equal to the appropriate experimentally derived KM. Kinetic readings at 405 nm were monitored every 12 secs for a total duration of 3 hours at 37° C. Gradients of initial rates were determined and employed to calculate IC50 values. Values of IC50 were converted to Ki values based on the formula:
(§4) Ki═IC50/(1+[Substrate]/Km)
(§5) Where [Substrate] denotes the concentration of substrate used in the assay and Km is the determined value of each enzyme with its own substrate.
The fold selectivity for FXIIa over thrombin for the compounds of the invention has been categorised based on the fold selectivity values, the categories being “+”, “++” and “+++”. The category “+” refers to fold selectivity values less than 10 (e.g. a fold selectivity value of less than 10 and greater than 1). The category “++” refers to a fold selectivity value of 10 to 100. The category “+++” refers to fold selectivity values greater than 100.

FXIIa = target: T2, FXIIa (Homo sapiens, UniProt P00748); experiment: Determination of Factor XIIa inhibition (chromogenic substrate S-2302); settings: human FXIIa alpha, Ki category
T2 construct: FXIIa alpha
T2 sequence (P00748 373-615 limits assumed): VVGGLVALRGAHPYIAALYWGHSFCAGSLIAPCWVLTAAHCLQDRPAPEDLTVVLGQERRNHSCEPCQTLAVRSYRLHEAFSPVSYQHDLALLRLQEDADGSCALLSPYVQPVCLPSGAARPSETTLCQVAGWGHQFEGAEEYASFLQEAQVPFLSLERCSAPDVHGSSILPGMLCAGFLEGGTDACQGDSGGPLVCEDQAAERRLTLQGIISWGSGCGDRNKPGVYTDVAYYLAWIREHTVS
T2 sequence (P00748 20-372 partner limits assumed): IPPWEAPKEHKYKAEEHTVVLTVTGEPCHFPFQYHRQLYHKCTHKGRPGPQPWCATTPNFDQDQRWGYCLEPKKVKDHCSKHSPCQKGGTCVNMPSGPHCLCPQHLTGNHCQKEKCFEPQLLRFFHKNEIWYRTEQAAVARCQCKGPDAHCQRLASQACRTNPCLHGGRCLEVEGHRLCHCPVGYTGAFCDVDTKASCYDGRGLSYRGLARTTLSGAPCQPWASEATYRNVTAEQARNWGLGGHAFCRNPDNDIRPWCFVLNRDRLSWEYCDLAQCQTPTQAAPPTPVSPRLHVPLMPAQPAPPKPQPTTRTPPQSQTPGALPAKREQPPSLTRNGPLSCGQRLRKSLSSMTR
Description: as §1, §2
Factor XIIa activity was measured using a chromogenic substrate S-2302 (Chromogenix). Various concentrations of compound were incubated with 10 nM of FXIIa and incubated at 37° C. for 10 minutes in 50 mM Tris, 137 mM NaCl, pH 7.4, prior to the addition of the chromogenic substrate S-2302 at a concentration equal the to the experimentally derived KM. Kinetic readings at 405 nm were monitored every 12 secs for a total duration of 3 hours at 37° C. Gradients of initial rates were determined and employed to calculate IC50 values.
The activity of the compounds of the invention has been categorised based on the Ki values, the categories being “†”, “*”, “**” and “***”. […] The category “**” refers to compounds with a Ki value of 0.2 μM to 0.8 μM.
as §4, §5

FXa = FXa (Homo sapiens, UniProt P00742); experiment: Determination of selectivity: FXa inhibition (chromogenic substrate S2765); settings: fold selectivity for FXIIa over FXa (human); category
Sequence of FXa (P00742 235-488 limits assumed): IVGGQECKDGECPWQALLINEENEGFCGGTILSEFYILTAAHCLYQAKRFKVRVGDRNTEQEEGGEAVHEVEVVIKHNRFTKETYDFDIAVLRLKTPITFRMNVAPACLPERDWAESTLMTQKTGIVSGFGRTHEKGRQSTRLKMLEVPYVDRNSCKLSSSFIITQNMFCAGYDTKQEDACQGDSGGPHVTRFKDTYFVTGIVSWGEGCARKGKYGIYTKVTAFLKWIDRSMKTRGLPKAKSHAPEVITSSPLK
Sequence of FXa (P00742 41-179 partner limits assumed): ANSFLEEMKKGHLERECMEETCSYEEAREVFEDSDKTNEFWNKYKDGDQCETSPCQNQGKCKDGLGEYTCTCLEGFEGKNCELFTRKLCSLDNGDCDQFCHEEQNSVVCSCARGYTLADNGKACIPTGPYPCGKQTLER
Description: as §1, §2, §3, §4, §5
The fold selectivity for FXIIa over FXa for the compounds of the invention has been categorised based on the fold selectivity values, the categories being “o”, “oo” and “ooo”. The category “o” refers to fold selectivity values less than 10 (e.g. a fold selectivity value of less than 10 and greater than 1). The category “oo” refers to a fold selectivity value of 10 to 100. The category “ooo” refers to fold selectivity values greater than 100.

| Ki (FXIIa) [nM] | FXa (human)/FXIIa alpha (human) (FXa) | SMILES | Thrombin (human)/FXIIa alpha (human) (thrombin) |
| --- | --- | --- | --- |
| 200 to 800 | ∘∘∘ | Cc1ccc(C[C@@H]2C[C@@H](C(=O)NCc3ccc4c(cnn4C)c3)N(C(=O)[C@@H]3NCCC[C@@H]3C(=O)N3CCNCC3)C2)cc1 [Example M05754, (2S,4R)-N-((1-methyl-1H-indazol-5-yl)methyl)-4-(4-methylbenzyl)-1-((2R,3S)-3-(piperazine-1-carbonyl)piperidine-2-carbonyl)pyrrolidine-2-carboxamide] | +++ (fold selectivity values greater than 100) |
| < 200 | ∘∘∘ | Cc1ccc(C[C@@H]2C[C@@H](C(=O)NCc3ccc4c(cnn4C)c3)N(C(=O)[C@H]3[C@@H](C(=O)N4CCCC4)CCCN3C)C2)cc1 [Example M05757, (2S,4R)—N-[(1-methylindazol-5-yl)methyl]-1-[(2R,3S)-1-methyl-3-(pyrrolidine-1-carbonyl)piperidine-2-carbonyl]-4-(p-tolylmethyl)pyrrolidine-2-carboxamide] | +++ (fold selectivity values greater than 100) |
| < 200 | ∘∘∘ | Cc1ccc(C[C@@H]2C[C@@H](C(=O)NCC3Cc4ccncc4C3)N(C(=O)[C@@H]3NCCC[C@@H]3C(=O)N3CCCC3)C2)cc1 (stereo partly drawn) [Example M05764, (2S,4R)-N-((6,7-dihydro-5H-cyclopenta[c]pyridin-6-yl)methyl)-4-(4-methylbenzyl)-1-((2R,3S)-3-(pyrrolidine-1-carbonyl)piperidine-2-carbonyl)pyrrolidine-2-carboxamide] | +++ (fold selectivity values greater than 100) |
| < 200 | ∘∘∘ | Cc1ccc(C[C@@H]2C[C@@H](C(=O)NCc3ccc4c(cnn4C)c3)N(C(=O)[C@@H]3NCCC[C@@H]3C(=O)N3CCC4(CC4)C3)C2)cc1 [Example M05766, (2S,4R)-1-[(2R,3S)-3-(5-azaspiro[2.4]heptane-5-carbonyl)piperidine-2-carbonyl]-N-[(1-methylindazol-5-yl)methyl]-4-(p-tolylmethyl)pyrrolidine-2-carboxamide] | +++ (fold selectivity values greater than 100) |
| 200 to 800 | ∘∘∘ | CCN1CCC[C@H](C(=O)N2CCCC2)[C@@H]1C(=O)N1C[C@H](Cc2ccc(C)cc2)C[C@H]1C(=O)NCc1ccc2c(cnn2C)c1 [Example M05772, (2S,4R)-1-((2R,3S)-1-ethyl-3-(pyrrolidine-1-carbonyl)piperidine-2-carbonyl)-N-((1-methyl-1H-indazol-5-yl)methyl)-4-(4-methylbenzyl)pyrrolidine-2-carboxamide] | +++ (fold selectivity values greater than 100) |
| 200 to 800 | ∘∘∘ | Cc1ccc(C[C@@H]2C[C@@H](C(=O)NCc3ccc4c(cnn4C)c3)N(C(=O)[C@@H]3NCCC[C@@H]3C(=O)N3CCCC34CC4)C2)cc1 [Example M05773] | ++ (a fold selectivity value of 10 to 100) |
| 800 to 5000 | ∘∘∘ | Cc1ccc(C[C@@H]2C[C@@H](C(=O)NCc3ccc4c(cnn4C)c3)N(C(=O)[C@@H]3NCCC[C@@H]3C(=O)N3CCC4(CC3)CC4)C2)cc1 [Example M05775, (2S,4R)-1-((2R,3S)-3-(6-azaspiro[2.5]octane-6-carbonyl)piperidine-2-carbonyl)-N-((1-methyl-1H-indazol-5-yl)methyl)-4-(4-methylbenzyl)pyrrolidine-2-carboxamide] | ++ (a fold selectivity value of 10 to 100) |
| 200 to 800 | ∘∘∘ | Cc1ccc(C[C@@H]2C[C@@H](C(=O)NCc3ccc4c(cnn4C)c3)N(C(=O)[C@@H]3NCCC[C@@H]3C(=O)N3CC[C@H](F)C3)C2)cc1 [Example M05777, (2S,4R)-1-((2R,3S)-3-((S)-3-fluoropyrrolidine-1-carbonyl)piperidine-2-carbonyl)-N-((1-methyl-1H-indazol-5-yl)methyl)-4-(4-methylbenzyl)pyrrolidine-2-carboxamide] | +++ (fold selectivity values greater than 100) |
| 200 to 800 | ∘∘∘ | Cc1ccc(C[C@@H]2C[C@@H](C(=O)NCc3ccc4c(cnn4C(F)F)c3)N(C(=O)[C@@H]3NCCC[C@@H]3C(=O)N3CCCC3)C2)cc1 [Example M05778, (2S,4R)-N-((1-(difluoromethyl)-1H-indazol-5-yl)methyl)-4-(4-methylbenzyl)-1-((2R,3S)-3-(pyrrolidine-1-carbonyl)piperidine-2-carbonyl)pyrrolidine-2-carboxamide] | +++ (fold selectivity values greater than 100) |
| < 200 | ∘∘∘ | Cc1ccc(C[C@@H]2C[C@@H](C(=O)NCc3ccc4c(cnn4C)c3)N(C(=O)[C@@H]3NCCC[C@@H]3C(=O)N3CC[C@@H](F)C3)C2)cc1 [Example M05785, (2S,4R)-1-((2R,3S)-3-((R)-3-fluoropyrrolidine-1-carbonyl)piperidine-2-carbonyl)-N-((1-methyl-1H-indazol-5-yl)methyl)-4-(4-methylbenzyl)pyrrolidine-2-carboxamide] | +++ (fold selectivity values greater than 100) |
| 200 to 800 | ∘∘∘ | Cc1ccc(C[C@@H]2C[C@@H](C(=O)NCc3ccc4c(cnn4C)c3)N(C(=O)[C@@H]3NCCC[C@@H]3C(=O)N3CCC(F)(F)C3)C2)cc1 [Example M05787, (2S,4R)-1-((2R,3S)-3-(3,3-difluoropyrrolidine-1-carbonyl)piperidine-2-carbonyl)-N-((1-methyl-1H-indazol-5-yl)methyl)-4-(4-methylbenzyl)pyrrolidine-2-carboxamide] | +++ (fold selectivity values greater than 100) |

| SMILES | Ki (FXIIa) [nM] | FXa (human)/FXIIa alpha (human) (FXa) | Thrombin (human)/FXIIa alpha (human) (thrombin) |
| --- | --- | --- | --- |
| Cc1ccc(C[C@@H]2C[C@@H](C(=O)NCc3ccc4c(cnn4C)c3)N(C(=O)[C@@H]3NCCC[C@@H]3C(=O)N3C4CCC3COC4)C2)cc1 [Example M05770, (2S,4R)-1-((2R,3S)-3-(3-oxa-8-azabicyclo[3.2.1]octane-8-carbonyl)piperidine-2-carbonyl)-N-((1-methyl-1H-indazol-5-yl)methyl)-4-(4-methylbenzyl)pyrrolidine-2-carboxamide] | 200 to 800 | ∘∘∘ | +++ (fold selectivity values greater than 100) |
